The text below walks through data of patent US8993558B2, “Compositions comprising a calcium channel blocker or a calmodulin blocker for use in the removal of hyperplastic skin lesions” (priority 2008, dated 2015).

Structures can show the parent of a compound that is named as a salt.

The subject of data set [1] is callouses. The data set is described as follows: Topical treatment of callouses in patients. The data set is classed as in vivo, human. How it is done:
A person had thick painful callouses over the lateral aspect of the 1st metatarsal-phallangeal joint on both feet. A mixture of Diltiazem dissolved at a concentration of 100 mg/ml in an ointment was given to the patient with instructions to apply the ointment 2-3 times per day in small amounts directly to only the callous locate on the 1st metatarsal-phallangeal joint of the left foot, and specifically not to use the ointment on the right foot.
A recreational tennis player had bilateral thickened calluses over the right and left 5th distal metatarsal head of both feet. These callouses were causing their significant pain and disability when they played tennis. The patient was treated with Trifluoperazine and Felodipine impregnated bandages.
Initially a water-proof bandage on which the mixture of Trifluoperazine 30 mg/ml Gel was applied to the adsorbent pad of the bandage with the pad being sized to cover the thickest area of the callous over the was right 5th distal metatarsal head. The pad of the waterproof bandage was applied to the callous and patient was instructed to replace the bandage 1-2 times per day with a new Trifluoperazine impregnated bandage after each shower/bath.
The patient was then given a one month supply of water-proof bandages on which the mixture of Felodipine 100 mg/ml ointment had been applied to the adsorbent pad of the bandage with the pad being sized to cover the thickest area of the callous over the was on the left 5th distal metatarsal head. The pad of the waterproof bandage was applied to the callous and patient was instructed to replaced the bandage 1-2 times per day with a new Felodipine impregnated bandage after each shower/bath.

Data set [2] relates to keloid. The data set is described as follows: Topical treatment of keloids in patients. The class given is in vivo, human. Conditions: Example 17: applied for two weeks twice daily to the donor surgical sites.
In data set [3] the test system is psoriatic plaques. The data set is described as follows: Topical treatment of psoriatic plaques. The class given is in vivo, human.
The subject of data set [4] is keloid. As to the kind of experiment: Topical treatment of keloids in patients. The class given is in vivo, human. Conditions: for keloid appearance: Example 17: 100 mg/ml ointment, keloid over mastoid process (Felodipine right, Diltiazem left); for keloid relapse: Example 17: follow up at 6 and 9 months. How it is done: A person had keloids that had formed over several areas of the donor site scar from a previous hair transplant several years ago over the occipital area of the scalp from mastoid process to mastoid process. The keloids over the mastoid process on right side were initially treated with Felodipine 100 mg/ml ointment. The patient had been given instructions to apply the Felodipine 100 mg/ml ointment several times per day to the right side only and the patient was seen weekly in follow up.

In data set [5] the test system is skin tag. The data set is described as follows: Treatment of skin tags in patients (injection or topical). The class given is in vivo, human. Here is the method: A person had multiple skin tags around their neck where they wore a gold necklace. A mixture of Diltiazem dissolved at a concentration of 100 mg/ml in an ointment was given to the patient with instructions to apply the ointment 1-2 times per day in small amounts directly to the skin tags.
(§1) A person applied 0.1 ml of Trifluoperazine Topical Gel 30 mg/ml twice daily topically to several genital warts and a skin tag in the right axillary area.

The test system of data set [6] is plantar wart. As to the kind of experiment: Topical treatment of plantar warts in patients. Here is the method:
The warts were 2-5 mm in diameter. The patient was instructed to apply the cream 2-3 times per day to the three plantar warts, Patient used the medication regularly for approximately 4 weeks.
A mixture of Diltiazem dissolved at a concentration of 100 mg/ml in an ointment was applied in small amounts directly to a single small 3 mm diameter plantar wart on sole under the 1st metatarsal-phallangeal joint on the left foot of a person. The patient applied the cream to the gauze pad of a bandage and then taped the bandage over the sole of the foot so that the Diltiazem 100 mg/ml ointment was in contact with the wart. The bandage was replaced daily after showering and this was continued for six weeks.
A person applied 0.1 ml of Trifluoperazine Topical Gel 30 mg/ml twice daily topically to a approximately […] plantar wart that was large enough to make walking painful.

Data set [7] concerns genital warts. The data set is described as follows: Topical treatment of genital (veneral) warts in patients. The data set is classed as in vivo, human. How it is done: as §1
A person applied 0.1 ml of Diltiazem supplied in 3 ml syringes with removable caps dissolved at a concentration of 100 mg/ml in an ointment twice daily topically to several genital warts.

Data set [8] has as its system outwardly-rectifying chloride channel. Conditions: 50 microM; cited from earlier work.
Data set [9] deals with P-glycoprotein. Conditions: hepatocyte canalicular membrane; cited from earlier work.
The subject of data set [10] is corn. Conditions: person.
[11] abbreviates: Example 18: Topical Gel 30 mg/ml, four weeks of use, follow up a month later.
Setting [12] is: Example 13: 0.1 ml Topical Gel 30 mg/ml twice daily, three weeks.

Consider `CCOC(=O)C1=C(C)NC(C)=C(C(=O)OC)C1c1cccc(Cl)c1Cl` (stereo not drawn) [Felodipine, Ethyl methyl 4-(2,3-dichlorophenyl)-1,4-dihydro-2,6-dimethylpyridine-3,5-dicarboxylate], for which, in data set [1] (Example 14: 100 mg/ml ointment impregnated bandage 1-2 times per day, left foot, after 3 weeks), the “pain when running and playing tennis” value is “pain free on both sides”. In data set [2], the “new keloid formation at FUE graft donor sites” value was “no new keloid formation”. Moreover, the psoriatic plaque clearing entry in data set [3] (Example 11: Topical ointment 100 mg/ml, left hand and wrist) is listed as “significant clearing”. Besides, the keloid appearance entry in data set [4] (person, after 1 week) is “noticeable softening”; in [4] (after 2 weeks) it was “noticeable flattening and continued softening”; in [4] (by six weeks) it was “flattened to the level of the adjoining skin”. The keloid relapse entry in [4] is “no relapse of the initial cosmetic improvement”.

Turning to `CN1CCN(CCCN2c3ccccc3Sc3ccc(C(F)(F)F)cc32)CC1.Cl.Cl` [Trifluoperazine, 10-[3-(4-Methylpiperazin-1-yl)propyl]-2-trifluoromethyl-phenothiazine dihydrochloride], the “callous softness and thickness” value in data set [1] (Example 14: 30 mg/ml Gel impregnated bandage 1-2 times per day, right foot, person, within one week) was “a softening and a reduction in the thickness of the callous”. In data set [1] (Example 14: 30 mg/ml Gel impregnated bandage, right foot (untreated left side still painful), after two weeks), the pain or disability result was “no longer having any pain or disability”. Moreover, in [1] (Example 14: 30 mg/ml Gel impregnated bandage, right foot, after two weeks), the callous thickness was “had thinned”. Besides, the “pain while playing tennis” value in data set [1] (Example 14: 30 mg/ml Gel impregnated bandage, right foot, within one week) was “reduced pain while playing tennis”. The skin tag clearing entry in data set [5] (Example 18: 0.1 ml Topical Gel 30 mg/ml twice daily, right axillary area, three weeks) was “significant clearing”; in [5] (setting [11]), “complete clearing”. Besides, the plantar wart clearing result in data set [6] (Example 13: 0.1 ml Topical Gel 30 mg/ml twice daily, person, three weeks) is on record as “significant clearing”. For the same compound, the “irritation or erythema around the lesion” value in [6] (setting [12]) is given as “no irritation or erythema”. For the same compound, in [6] (setting [12]), the “pain on walking and weight bearing” value was “weight bearing without pain”. Besides, the plantar wart outcome in data set [6] (Example 13: Topical Gel 30 mg/ml, stopped for the past two weeks, six weeks follow up) is given as “the wart was no longer visible”. Also, in [6] (Example 13: gel not used for over 3 months, seen at 4 months), the plantar wart recurrence entry is given as “no recurrence of the wart”. Also, the genital wart clearing entry in data set [7] (Example 18: 0.1 ml Topical Gel 30 mg/ml twice daily, person, three weeks) is listed as “significant clearing”; in data set [7] (setting [11]), “complete clearing”.

On to `CC[C@]1(O)C[C@@H]2CN(CCc3c([nH]c4ccccc34)[C@@](C(=O)OC)(c3cc4c(cc3OC)N(C)[C@H]3[C@@](O)(C(=O)OC)[C@H](OC(C)=O)[C@]5(CC)C=CCN6CC[C@]43[C@@H]65)C2)C1` [vinblastine], for which the “block of outwardly-rectifying chloride channel” value (“block” for short) in data set [8] is given as “blocked”.

Turning to `COc1cc2c(c(OC)c1OC)-c1ccc(OC)c(=O)cc1[C@@H](NC(C)=O)CC2` [colchicine], the “block” value in [8] is “blocked”.

For `COc1cccc2c1C(=O)c1c(O)c3c(c(O)c1C2=O)C[C@@](O)(C(C)=O)C[C@@H]3O[C@H]1C[C@H](N)[C@H](O)[C@H](C)O1` [daunorubicin], the “transport of permanently charged amphiphilic cations” value in data set [9] is “inhibited”. Moreover, the “block” value in data set [8] is recorded as “blocked”.

Regarding `COc1ccc([C@@H]2Sc3ccccc3N(CCN(C)C)C(=O)[C@@H]2OC(C)=O)cc1` [Diltiazem, (+)-cis-3-Acetoxy-5-(2-dimethylaminoethyl)-2,3-dihydro-2-(4-methoxyphenyl)-1,5-benzothiazapin-4(5H)-one hydrochloride], in data set [1] (Example 6: 100 mg/ml ointment 2-3 times per day, left foot only (right foot control unchanged), person, three weeks), the callous thickness is listed as “dramatic reduction in the thickness of the callous”. The “new keloid formation at FUE graft donor sites” value in [2] was “no new keloid formation”. Also, in data set [5] (Example 9: 100 mg/ml ointment 1-2 times per day, multiple neck skin tags, person, one month), the skin tags remaining entry is “only a few small skin tags remaining”. Further, the skin tag outcome in data set [5] (Example 9: 100 mg/ml ointment off and on, person, after 3 months) is on record as “completely cleared”. In data set [10] (Example 7: 100 mg/ml ointment 2-3 times per day, one month), the “pain associated with wearing shoes” value is reported as “significant reduction in pain”. Besides, in [10] (Example 7: 100 mg/ml ointment 2-3 times per day, second toe, one month), the corn thickness result is “noticeable reduction in the thickness of the corn”. Further, the corn outcome in data set [10] (Example 7: 100 mg/ml ointment off and on, after 6 months) was “the corn had dissappeared”. Moreover, the plantar wart size result in data set [6] (Example 5: 100 mg/ml ointment on bandage daily, 3 mm wart, person, after about two weeks) is “dramatically shrunk in size”. Besides, the plantar wart outcome in data set [6] (Example 5: 100 mg/ml ointment on bandage daily, person, six weeks) was “not detected”. Also, in data set [6] (Example 5: person, reassessed after 3 months), the plantar wart recurrence entry is on record as “no evidence of recurrence of the plantar wart”. The psoriatic plaque clearing result in data set [3] (Example 11: 100 mg/ml ointment, left leg) is reported as “significant clearing”. Moreover, the keloid appearance result is “noticeable softening” in data set [4] (person, after 1 week); “noticeable flattening and continued softening” in [4] (after 2 weeks); “flattened to the level of the adjoining skin” in data set [4] (by six weeks). For the same compound, in data set [4], the keloid relapse entry is on record as “no relapse of the initial cosmetic improvement”. Besides, the genital wart clearing result in data set [7] (Example 19: 100 mg/ml ointment, follow up at 5 weeks) is reported as “complete clearing of the genital warts”; in data set [7] (Example 19: 0.1 ml of 100 mg/ml ointment twice daily, person, three weeks), “significant clearing”.

With `C=C[C@H]1C[N@@]2CC[C@H]1C[C@@H]2[C@@H](O)c1ccnc2ccc(OC)cc12` [quinidine], the “transport of permanently charged amphiphilic cations” value in data set [9] is “inhibited”.
